Results as given in ChEMBL document CHEMBL5120954, “Novel MRGX2 Antagonists for Treating Diseases” (ACS Med Chem Lett, 2022).

Molecular target: T1, Mas-related G-protein coupled receptor member X2 (Homo sapiens, UniProt Q96LB1)
T1 sequence (Q96LB1 whole entry): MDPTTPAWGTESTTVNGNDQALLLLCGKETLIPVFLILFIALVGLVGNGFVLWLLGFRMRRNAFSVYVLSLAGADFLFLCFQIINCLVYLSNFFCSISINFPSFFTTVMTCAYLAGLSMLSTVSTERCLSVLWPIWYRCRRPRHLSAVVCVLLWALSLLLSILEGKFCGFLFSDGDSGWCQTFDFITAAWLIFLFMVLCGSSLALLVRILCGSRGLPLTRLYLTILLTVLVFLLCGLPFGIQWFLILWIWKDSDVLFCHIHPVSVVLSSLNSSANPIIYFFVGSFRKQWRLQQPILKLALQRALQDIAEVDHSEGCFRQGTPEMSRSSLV
Test: Antagonist activity at human MRGPRX2 expressed in HEK293 cells co-expressing mouse Galpha15 assessed as inhibition of Cortistatin-14 induced Ca2+ mobilization preincubated for 30 mins followed by Cortistatin-14 addition by FLIPRtetra-calcium mobilization assay
Type: functional, cell-based

SMILES | IC50 [µM]
CC(C(=O)Nc1ccc(Oc2ccc(F)cc2)cn1)N1CCC(F)(F)C(c2c[nH]c(=O)c(CNCCO)c2)C1 (stereo not given) | ≤ 0.01
CC(C(=O)Nc1ccc(Oc2cnc(F)cc2Cl)cn1)N1CCC(F)(F)[C@@H](c2ccc(=O)[nH]c2)C1 (stereo not given in full) | ≤ 0.01
CC(C(=O)Nc1ccc(Oc2ccc(F)cc2)cn1)C1CCC(F)(F)C(c2ccc(=O)[nH]c2)C1 (stereo not given) | ≤ 0.01

Continued, values first:

IC50 [µM] | SMILES
≤ 0.01 | CC(C(=O)Nc1ccc(Oc2ccccc2)cn1)N1CCC(F)(F)[C@@H](c2c[nH]c(=O)c(CN)c2)C1 (stereo not given in full)
≤ 0.01 | C[C@@H](C(=O)Nc1ccc(Oc2ccc(F)cc2F)cn1)N1CCC(F)(F)[C@@H](c2c[nH]c(=O)c(CS(C)(=O)=O)c2)C1
